Literature values as cited in paper PMC6050274, “Buparlisib is a brain penetrable pan-PI3K inhibitor” (Scientific Reports, 2018).

Settings: cited from earlier work

brain-plasma ratio, ≤ 1:
COC1(c2sc3c(N4CCOCC4)nc(-c4cnc(N)nc4)nc3c2C)COC1 [GNE-317]
Cn1c(=O)n(-c2ccc(C(C)(C)C#N)cc2)c2c3cc(-c4cnc5ccccc5c4)ccc3ncc21 [NVP-BEZ235]
FC(F)c1nc2ccccc2n1-c1nc(N2CCOCC2)nc(N2CCOCC2)n1 [ZSTK474]
